Experiments:
Assay in all cases: relative viability (nuclei count vs DMSO), 5 days (fraction); higher = more cells survive
ChaGo-K-1 = system: ChaGo-K-1
Summary of the method: (§1)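 Five library-drug doses in √10 steps were combined with a fixed anchor-drug dose, or a single drug was given alone, by pin tool to lung cancer cell lines in 1536-well plates the day after seeding. Nuclei were stained and counted after 5 days. Relative viability is the nuclei count in treated wells over that in vehicle wells, taken as the median of duplicate plates.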

EKVX = system: EKVX
Summary of the method: as §1

EMC-BAC-2 = system: EMC-BAC-2
Summary of the method: as §1

EPLC-272H = system: EPLC-272H
Summary of the method: as §1

HCC-78 = system: HCC-78
Summary of the method: as §1

HCC-827 = system: HCC-827
Summary of the method: as §1

LCLC-103H = system: LCLC-103H
Summary of the method: as §1

LK-2 = system: LK-2
Summary of the method: as §1

LU99A = system: LU99A
Summary of the method: as §1

NCI-H1563 = system: NCI-H1563
Summary of the method: as §1

NCI-H1666 = system: NCI-H1666
Summary of the method: as §1

NCI-H1975 = system: NCI-H1975
Summary of the method: as §1

NCI-H2126 = system: NCI-H2126
Summary of the method: as §1

NCI-H23 = system: NCI-H23
Summary of the method: as §1

NCI-H2405 = system: NCI-H2405
Summary of the method: as §1

NCI-H322M = system: NCI-H322M
Summary of the method: as §1

PC-14 = system: PC-14
Summary of the method: as §1

RERF-LC-KJ = system: RERF-LC-KJ
Summary of the method: as §1

SK-LU-1 = system: SK-LU-1
Summary of the method: as §1

SW 1573 = system: SW 1573
Summary of the method: as §1

SMILES: Nc1ccn([C@@H]2O[C@H](CO)[C@@H](O)[C@@H]2O)c(=O)n1 [Cytarabine] + C[C@@H](Oc1cc(-c2cnn(C3CCNCC3)c2)cnc1N)c1c(Cl)ccc(F)c1Cl [Crizotinib] (partner 1 µM)
- relative viability (ChaGo-K-1; first compound 0.005 µM): 0.732
- relative viability (ChaGo-K-1; first compound 0.01581 µM): 0.717
- relative viability (ChaGo-K-1; first compound 0.05 µM): 0.521
- relative viability (ChaGo-K-1; first compound 0.1581 µM): 0.383
- relative viability (ChaGo-K-1; first compound 0.5 µM): 0.358
- relative viability (EKVX; first compound 0.005 µM): 0.802
- relative viability (EKVX; first compound 0.01581 µM): 1.07
- relative viability (EKVX; first compound 0.05 µM): 0.827
- relative viability (EKVX; first compound 0.1581 µM): 0.368
- relative viability (EKVX; first compound 0.5 µM): 0.287
- relative viability (EMC-BAC-2; first compound 0.005 µM): 0.592
- relative viability (EMC-BAC-2; first compound 0.01581 µM): 0.574
- relative viability (EMC-BAC-2; first compound 0.05 µM): 0.472
- relative viability (EMC-BAC-2; first compound 0.1581 µM): 0.242
- relative viability (EMC-BAC-2; first compound 0.5 µM): 0.185
- relative viability (EPLC-272H; first compound 0.005 µM): 0.667
- relative viability (EPLC-272H; first compound 0.01581 µM): 0.379
- relative viability (EPLC-272H; first compound 0.05 µM): 0.577
- relative viability (EPLC-272H; first compound 0.1581 µM): 0.326
- relative viability (EPLC-272H; first compound 0.5 µM): 0.368
- relative viability (HCC-78; first compound 0.005 µM): 0.369
- relative viability (HCC-78; first compound 0.01581 µM): 0.302
- relative viability (HCC-78; first compound 0.05 µM): 0.282
- relative viability (HCC-78; first compound 0.1581 µM): 0.26
- relative viability (HCC-78; first compound 0.5 µM): 0.2
- relative viability (HCC-827; first compound 0.005 µM): 0.593
- relative viability (HCC-827; first compound 0.01581 µM): 0.478
- relative viability (HCC-827; first compound 0.05 µM): 0.477
- relative viability (HCC-827; first compound 0.1581 µM): 0.197
- relative viability (HCC-827; first compound 0.5 µM): 0.249
- relative viability (LCLC-103H; first compound 0.005 µM): 0.942
- relative viability (LCLC-103H; first compound 0.01581 µM): 1.03
- relative viability (LCLC-103H; first compound 0.05 µM): 1.07
- relative viability (LCLC-103H; first compound 0.1581 µM): 1.03
- relative viability (LCLC-103H; first compound 0.5 µM): 0.977
- relative viability (LK-2; first compound 0.005 µM): 0.262
- relative viability (LK-2; first compound 0.01581 µM): 0.305
- relative viability (LK-2; first compound 0.05 µM): 0.208
- relative viability (LK-2; first compound 0.1581 µM): 0.196
- relative viability (LK-2; first compound 0.5 µM): 0.205
- relative viability (LU99A; first compound 0.005 µM): 0.62
- relative viability (LU99A; first compound 0.01581 µM): 0.549
- relative viability (LU99A; first compound 0.05 µM): 0.517
- relative viability (LU99A; first compound 0.1581 µM): 0.527
- relative viability (LU99A; first compound 0.5 µM): 0.498
- relative viability (NCI-H1563; first compound 0.005 µM): 0.806
- relative viability (NCI-H1563; first compound 0.01581 µM): 0.916
- relative viability (NCI-H1563; first compound 0.05 µM): 0.852
- relative viability (NCI-H1563; first compound 0.1581 µM): 0.809
- relative viability (NCI-H1563; first compound 0.5 µM): 0.606
- relative viability (NCI-H1666; first compound 0.005 µM): 0.794
- relative viability (NCI-H1666; first compound 0.01581 µM): 0.945
- relative viability (NCI-H1666; first compound 0.05 µM): 0.612
- relative viability (NCI-H1666; first compound 0.1581 µM): 0.358
- relative viability (NCI-H1666; first compound 0.5 µM): 0.388
- relative viability (NCI-H1975; first compound 0.005 µM): 0.801
- relative viability (NCI-H1975; first compound 0.01581 µM): 1.01
- relative viability (NCI-H1975; first compound 0.05 µM): 0.994
- relative viability (NCI-H1975; first compound 0.1581 µM): 0.667
- relative viability (NCI-H1975; first compound 0.5 µM): 0.373
- relative viability (NCI-H2126; first compound 0.005 µM): 0.916
- relative viability (NCI-H2126; first compound 0.01581 µM): 1.01
- relative viability (NCI-H2126; first compound 0.05 µM): 0.96
- relative viability (NCI-H2126; first compound 0.1581 µM): 0.78
- relative viability (NCI-H2126; first compound 0.5 µM): 0.656
- relative viability (NCI-H23; first compound 0.005 µM): 0.458
- relative viability (NCI-H23; first compound 0.01581 µM): 0.369
- relative viability (NCI-H23; first compound 0.05 µM): 0.311
- relative viability (NCI-H23; first compound 0.1581 µM): 0.226
- relative viability (NCI-H23; first compound 0.5 µM): 0.209
- relative viability (NCI-H2405; first compound 0.005 µM): 0.754
- relative viability (NCI-H2405; first compound 0.01581 µM): 0.693
- relative viability (NCI-H2405; first compound 0.05 µM): 0.592
- relative viability (NCI-H2405; first compound 0.1581 µM): 0.464
- relative viability (NCI-H2405; first compound 0.5 µM): 0.327
- relative viability (NCI-H322M; first compound 0.005 µM): 0.858
- relative viability (NCI-H322M; first compound 0.01581 µM): 0.676
- relative viability (NCI-H322M; first compound 0.05 µM): 0.534
- relative viability (NCI-H322M; first compound 0.1581 µM): 0.366
- relative viability (NCI-H322M; first compound 0.5 µM): 0.318
- relative viability (PC-14; first compound 0.005 µM): 0.805
- relative viability (PC-14; first compound 0.01581 µM): 0.84
- relative viability (PC-14; first compound 0.05 µM): 0.778
- relative viability (PC-14; first compound 0.1581 µM): 0.439
- relative viability (PC-14; first compound 0.5 µM): 0.2
- relative viability (RERF-LC-KJ; first compound 0.005 µM): 0.853
- relative viability (RERF-LC-KJ; first compound 0.01581 µM): 0.845
- relative viability (RERF-LC-KJ; first compound 0.05 µM): 0.759
- relative viability (RERF-LC-KJ; first compound 0.1581 µM): 0.502
- relative viability (RERF-LC-KJ; first compound 0.5 µM): 0.4
- relative viability (SK-LU-1; first compound 0.005 µM): 0.957
- relative viability (SK-LU-1; first compound 0.01581 µM): 0.83
- relative viability (SK-LU-1; first compound 0.05 µM): 0.694
- relative viability (SK-LU-1; first compound 0.1581 µM): 0.605
- relative viability (SK-LU-1; first compound 0.5 µM): 0.398
- relative viability (SW 1573; first compound 0.005 µM): 0.83
- relative viability (SW 1573; first compound 0.01581 µM): 0.868
- relative viability (SW 1573; first compound 0.05 µM): 0.864
- relative viability (SW 1573; first compound 0.1581 µM): 0.412
- relative viability (SW 1573; first compound 0.5 µM): 0.179
